Where a name gives a salt, the structure may show the parent alone.
Assays:
Human Thrombocytes = experiment: Fibrinogen Binding to Human Thrombocytes (I125-fibrinogen, gel-filtered platelets); settings: inhibition of I125-fibrinogen binding to gel-filtered human platelets, ADP, 20 minutes, ambient temperature; read-out: Fibrinogen Binding test IC50
Method: 1. Fibrinogen Binding to Human Thrombocytes Blood obtained by puncture of an antecubital vein was anticoagulated with trisodium citrate (final concentration: 13 mM) and centrifuged for 10 minutes at 170 *g. The supernatant platelet-rich plasma was placed on a Sepharose 2B column (Pharmacia) and eluted with a solution of 90 mM common salt, 14 mM trisodium citrate, 5 mM glucose and 50 mM tris(hydroxymethyl)aminomethane, adjusted to pH 7.4. The gel-filtered platelets (GFP) appearing in front of the plasma proteins were used for the binding tests. 50 μl of a 60 mM calcium chloride solution, 50 μl of a 0.6 mM adenosine diphosphate solution, 100 μl of substance solution or solvent and 50 μl of fibrinogen solution (containing 3 μg I125-fibrinogen) were added to 750 μl of GFP and incubated for 20 minutes at ambient temperature. The non-specific binding was measured in the presence of 3 mg/ml of cold fibrinogen. 900 μl of the incubate were carefully pipetted onto 250 μl of silicon oil (AP 38: AR 20, 1:2 v/v, Wacker Chemie) in Eppendorf vessels and centrifuged for 2 minutes at 10,000 *g. The aqueous supernatant and some of the oil were removed, the tip of the vessel with the platelet pellet was cut off and the quantity of bound fibrinogen was measured in a gamma-counter. The concentration of substance which inhibited fibrinogen binding by 50% was calculated from a series of concentrations and given as the IC50.

[1] = tested on: thrombocyte aggregation in platelet-rich plasma; experiment: Antithrombotic effect: collagen-induced thrombocyte aggregation in platelet-rich plasma (Born and Cross); format: cell-based; settings: human platelet-rich plasma, 10 minutes preincubation at 37° C., read-out: Inhibition of platelet aggregation EC50
Method: 2. Antithrombotic Effect Method: The thrombocyte aggregation was measured in platelet-rich plasma from healthy test subjects using the Born and Cross method (J. Physiol. 170: 397 (1964)). In order to inhibit coaggulation the blood was mixed with 3.14% sodium citrate in a ratio by volume of 1:10. Collagen-induced aggregation: The decrease in the optical density of the platelet suspension was measured photometrically and recorded after the addition of the aggregation-initiating substance. The speed of aggregation was concluded from the angle of inclination of the density curve. The point on the curve at which there was maximum transmittance was used to calculate the optical density. The quantity of collagen used was as little as possible but sufficient to give an irreversible reaction curve. Standard commercial collagen produced by Hormonchemie of Munich was used. Before the addition of collagen the plasma was incubated with the substance for 10 minutes at 37° C. From the measurements obtained, an EC50 was determined graphically, relating to a 50% change in the optical density in terms of inhibiting aggregation.

| SMILES | IC50 (Human Thrombocytes) [nM] | EC50 [1] [nM] |
| --- | --- | --- |
| COC(=O)CCc1ccc(N2CCCN(c3ccc(CN)cc3)C2=O)cc1 [8(1), 1-(4-aminomethyl-phenyl)-3-[4-(2-methoxycarbonyl-ethyl)-phenyl]-3,4,5,6-tetrahydro-1H-pyrimidin-2-one hydrochloride] | 68000 | 21000 |
| COC(=O)CCc1ccc(N2CCN(c3ccc4c(c3)CCC4N)C2=O)cc1 (stereo not shown) [31(1), 1-(1-amino-5-indanyl)-3-[4-(2-methoxycarbonyl-ethyl)-phenyl]-imidazolidin-2-one hydrochloride] | 170 | 370 |
| COC(=O)CCN1CC(c2ccc(-c3ccc(C(=N)N)cc3)cc2)N(c2ccccc2)C1=O (stereo not shown) [4(9), 4-(4'-amidino-4-biphenylyl)-1-(2-methoxycarbonyl-ethyl)-3-phenyl-imidazolidin-2-one hydrochloride] | 2600 | 9500 |
| COC(=O)CCc1ccc(N2CCN(c3ccc(C(=N)NC(=O)OC)cc3)C2=O)cc1 [5(1), 1-(4-methoxycarbonylamidino-phenyl)-3-[4-(2-methoxycarbonyl-ethyl)-phenyl]-imidazolidin-2-one] | > 100000 | 20000 |
| COC(=O)CC(C)(C)c1ccc(N2CCN(c3ccc(C(=N)N)cc3)C2=O)cc1 [2(47), 1-(4-amidino-phenyl)-3-[4-(3-methoxycarbonyl-2-methyl-2-propyl)-phenyl]-imidazolidin-2-one hydrochloride] | 32000 | > 100000 |
| N=C(N)c1ccc(N2CC(=O)N(c3ccc(CCC(=O)O)cc3)C2=O)cc1 [1(62), 1-(4-amidino-phenyl)-3-[4-(2-carboxy-ethyl)-phenyl]-imidazolidin-2,4-dione] | 13 | 40 |
| COC(=O)CCc1ccc(N2CCN(c3ccc(C(=N)N)cc3)S2(=O)=O)cc1 [2(57), 2-(4-amidino-phenyl)-5-[4-(2-methoxycarbonyl-ethyl)-phenyl]-3,4-dihydro-2H,5H-1,2,5-thiadiazole-1,1-dioxide hydrochloride] | 640 | 320 |
| COC(=O)C(N)Cc1ccc(N2CCN(c3ccc(CN)cc3)C2=O)cc1 (stereo not shown) [8(3), 1-[4-(2-amino-2-methoxycarbonyl-ethyl)-phenyl]-3-(4-aminomethyl-phenyl)-imidazolidin-2-one dihydrochloride] | 29000 | 6200 |
| NCc1ccc(N2CCN(c3ccc(CC(N)C(=O)O)cc3)C2=O)cc1 (stereo not shown) [1(149), 1-[4-(2-amino-2-carboxy-ethyl)-phenyl]-3-(4-aminomethyl-phenyl)-imidazolidin-2-one] | 470 | 1300 |
| COC(=O)CCc1ccc(-n2nc(C)n(-c3ccc(C(=N)N)cc3)c2=O)cc1 [2(117), 4-(4-amidino-phenyl)-2-[4-(2-methoxycarbonyl-ethyl)-phenyl]-5-methyl-4H-1,2,4-triazol-3-one hydrochloride] | – | 630 |
| N=C(N)c1ccc(N2CCN(CCc3ccc(C(=O)O)cc3)C2=O)cc1 [1(55), 1-(4-amidino-phenyl)-3-[2-(4-carboxyphenyl)-ethyl]-imidazolidin-2-one] | 860 | 60000 |
| COC(=O)CCC1CCC(N2CCN(c3ccc(C(=N)N)cc3)C2=O)CC1 (stereo not shown) [2(43), 1-(4-amidino-phenyl)-3-[4-(2-methoxycarbonyl-ethyl)-cyclohexyl]-imidazolidin-2-one hydrochloride] | 420 | 100 |
| CCOC(=O)CCN1CCCN(c2ccc(-c3ccc(C(=N)N)cc3)cc2)C1=O [2(4), 1-(4'-amidino-4-biphenylyl)-3-(2-ethoxycarbonyl-ethyl)-3,4,5,6-tetrahydro-1H-pyrimidin-2-one hydrochloride] | 15000 | 42000 |
| NCc1ccc(N2CCN(c3ccc(OCC(=O)O)cc3)C2=O)cc1 [1(141), 1-(4-aminomethyl-phenyl)-3-(4-carboxymethyloxyphenyl)-imidazolidin-2-one] | 310 | 630 |
| COC(=O)CCc1ccc(N2CCN(c3ccc(C(=N)N)cc3)C2=O)cc1 [2(6), 1-(4-amidino-phenyl)-3-[4-(2-methoxycarbonyl-ethyl)-phenyl]-imidazolidin-2-one hydrochloride] | 240 | 160 |
| COC(=O)CCc1ccc(N2CCN(c3ccc(C(C)N)cc3)C2=O)cc1 (stereo not shown) [Example 31, 1-[4-(1-Amino-ethyl)-phenyl]-3-[4-(2-methoxycarbonyl-ethyl)-phenyl]-imidazolidin-2-one hydrochloride] | 250 | 500 |

| SMILES | IC50 (Human Thrombocytes) [nM] | EC50 [1] [nM] |
| --- | --- | --- |
| COC(=O)CCN1CCN(c2ccc(-c3ccc(C(=N)N)cc3)nn2)C1=O [2(27), 1-[6-(4-amidino-phenyl)-3-pyridazinyl]-3-(2-methoxycarbonyl-ethyl)-imidazolidin-2-one hydrochloride] | 2500 | 490 |
| COC(=O)CCc1ccc(N2C(=O)CN(c3ccc(C(=N)N)cc3)C2=O)cc1 [2(53), 1-(4-amidino-phenyl)-3-[4-(2-methoxycarbonyl-ethyl)-phenyl]-imidazolidin-2,4-dione hydrochloride] | 4500 | 200 |
| N=C(N)c1ccc(N2CCN(c3ccc(CCC(=O)O)cc3)C2=O)cc1 [1(6), 1-(4-amidino-phenyl)-3-[4-(2-carboxy-ethyl)-phenyl]-imidazolidin-2-one] | 17 | 70 |
| N=C(N)c1ccc(-n2ncn(-c3ccc(CCC(=O)O)cc3)c2=O)cc1 [1(145), 2-(4-amidino-phenyl)-4-[4-(2-carboxy-ethyl)-phenyl]-4H-1,2,4-triazol-3-one] | 7.7 | 50 |
| CN1C(=O)N(c2ccc(CCC(=O)O)cc2)CC1c1ccc(C(=N)N)cc1 (stereo not shown) [4(16), 4-(4-amidino-phenyl)-1-[4-(2-carboxy-ethyl)-phenyl]-3-methyl-imidazolidin-2-one hydrochloride] | 1500 | 1900 |
| COC(=O)CCn1cc(-c2ccc(-c3ccc(C(=N)N)cc3)cc2)n(-c2ccccc2)c1=O [2(106), 4-(4'-amidino-4-biphenylyl)-1-(2-methoxycarbonyl-ethyl)-3-phenyl-3H-imidazol-2-one hydrochloride] | 2700 | 6600 |
| COC(=O)CCc1ccc(-n2ncn(-c3ccc(C(=N)N)cc3)c2=O)cc1 [2(124), 4-(amidino-phenyl)-2-[4-(2-methoxycarbonyl-ethyl)-phenyl]-4H-1,2,4-triazol-3-one hydrochloride] | – | 130 |
| COC(=O)CCc1ccc(-n2cc(C)n(-c3ccc(C(=N)N)cc3)c2=O)cc1 [2(122), 3-(4-amidino-phenyl)-1-[4-(2-methoxycarbonyl-ethyl)-phenyl]-4-methyl-3H-imidazol-2-one hydrochloride-hydrate] | – | 1200 |
| COC(=O)CS(=O)(=O)c1ccc(N2CCN(c3ccc(C(=N)N)cc3)C2=O)cc1 [Example 18, 1-(4-Amidino-phenyl)-3-(methoxycarbonylmethylsulphonyl-phenyl)-imidazolidin-2-one] | – | 240 |
| COC(=O)CCC1CCC(N2CCN(c3ccc(C(=N)NC(=O)OC)cc3)C2=O)CC1 (stereo not shown) [5(12), 1-(4-methoxycarbonylamidino-phenyl)-3-[4-(2-methoxycarbonyl-ethyl)-cyclohexyl]-imidazolidin-2-one] | 3700 | – |
| Cc1nn(-c2ccc(C(=N)N)cc2)c(=O)n1-c1ccc(CCC(=O)OC(C)C)cc1 [11(11), 2-(4-amidino-phenyl)-4-[4-(2-isopropyloxycarbonyl-ethyl)-phenyl]-5-methyl-4H-1,2,4-triazol-3-one hydrochloride] | – | 210 |
| COC(=O)CSc1ccc(N2CCN(c3ccc(C(=N)N)cc3)C2=O)cc1 [2(45), 1-(4-amidino-phenyl)-3-(4-methoxycarbonyl-methylthio-phenyl)-imidazolidin-2-one] | – | 280 |
| Cc1cn(-c2ccc(CCC(=O)O)cc2)c(=O)n1-c1ccc(C(=N)N)cc1 [1(144), 3-(4-amidino-phenyl)-1-[4-(2-carboxy-ethyl)-phenyl]-4-methyl-3H-imidazol-2-one] | – | 600 |
| COC(=O)CCc1ccc(-n2cnn(-c3ccc(C(N)=NC(=O)OC)cc3)c2=O)cc1 [5(11), 2-(4-methoxycarbonylamidino-phenyl)-3-[4-(2-methoxycarbonyl-ethyl)-phenyl]-4H-1,2,4-triazol-3-one] | 5700 | – |
| Cc1nn(-c2ccc(CCC(=O)O)cc2)c(=O)n1-c1ccc(C(=N)N)cc1 [1(137), 4-(4-amidino-phenyl)-2-[4-(2-carboxy-ethyl)-phenyl]-5-methyl-4H-1,2,4-triazol-3-one] | – | 280 |

Source: patent US5276049A, “Cyclic urea derivatives, pharmaceutical compositions containing these compounds and methods of using the same” (Dr. Karl Thomae GmbH, priority 1991, dated 1994)
